{
  "source": "patent US6812221B2",
  "about": "“FGF-affinity chromatography” (The Texas A&M University System, priority 2000, dated 2004)",
  "key": {"mouse keratinocytes (MK)": {"system": "mouse keratinocytes (MK)", "assay": "Mitogenic activity in cultured mouse keratinocytes (MK)", "type": "cell-based", "conditions": "cells in culture", "description": "(§1) Finally, the recovery and activity of purified ^54Ser-FGF7 was tested after the removal of the GST portion by trypsin treatment from the heparin-immobilized GST-FGF7 recovered under the improved conditions employing 10 mM MgCl2 and the BL21 (DE3) pLysS strain. […] Results indicated a yield of pure ^54Ser-FGF7 of 4.8±0.5 mg per liter per OD600, which on a molar basis represents an average yield of 70 percent from the purified GST-FGF7 product."}, "FGFR2111b": {"biological_target": "T1, FGFR2111b (Homo sapiens, UniProt P21802)", "T1 construct": "expressed in transfected cells; host or cells: insect cells", "T1 sequence (P21802 22-822 isoform P21802-3 limits assumed)": "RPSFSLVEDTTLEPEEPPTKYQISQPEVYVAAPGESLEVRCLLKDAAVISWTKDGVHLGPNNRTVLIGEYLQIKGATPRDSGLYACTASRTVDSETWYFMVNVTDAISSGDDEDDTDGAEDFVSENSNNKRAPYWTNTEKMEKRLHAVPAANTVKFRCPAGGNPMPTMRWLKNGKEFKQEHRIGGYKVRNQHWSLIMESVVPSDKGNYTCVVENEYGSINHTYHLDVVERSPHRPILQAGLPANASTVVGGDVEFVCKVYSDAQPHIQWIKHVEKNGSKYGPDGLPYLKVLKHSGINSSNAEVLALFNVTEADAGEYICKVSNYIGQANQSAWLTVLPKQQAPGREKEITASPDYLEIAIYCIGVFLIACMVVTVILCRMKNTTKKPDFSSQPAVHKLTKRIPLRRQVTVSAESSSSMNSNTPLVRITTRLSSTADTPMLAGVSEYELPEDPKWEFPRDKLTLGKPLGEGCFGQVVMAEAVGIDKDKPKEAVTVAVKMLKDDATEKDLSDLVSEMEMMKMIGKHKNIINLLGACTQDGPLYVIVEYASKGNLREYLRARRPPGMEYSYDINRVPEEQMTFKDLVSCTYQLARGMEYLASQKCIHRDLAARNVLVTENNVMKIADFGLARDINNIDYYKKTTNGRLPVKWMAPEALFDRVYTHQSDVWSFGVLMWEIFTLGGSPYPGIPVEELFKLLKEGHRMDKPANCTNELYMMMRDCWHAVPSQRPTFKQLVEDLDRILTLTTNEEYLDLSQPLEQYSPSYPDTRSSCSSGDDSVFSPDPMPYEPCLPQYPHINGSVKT", "assay": "Binding to FGFR complex on the surface of insect cells", "description": "as §1"}, "[1]": {"assay": "Heparin affinity chromatography / heparin binding", "description": "FIG. 1. Intact heparin-binding in the GST-FGF7 fusion product. Pure 200 μg GST-FGF7 and 10 ng ^125I-FGF7 (3×10^6 cpm) was mixed and subjected to heparin affinity chromatography on Pharmacia FPLC system. The GST-FGF7 was detected as a major peak (solid trace) by absorbance at 280 nm.\nWhen fused at the N-terminal of FGF7 with a highly soluble and productive partner, Glutathione-S-transferase (GST), FGF7 was produced in bacteria at about 3.2 mg/ml yield with retained biological activity. Expressing alone has barely detectable level by immuno-reaction. Pure fusion protein was obtained by sequential chromatography on Glutathione (GSH) and Heparin affinity matrix (Luo et al. 1998, Lu et al. 1999, Jang et al. 1997). This is consistent with FGF7 crystal structure, which shown that the N-terminal of FGF7 is flexible and outside the compact core structure, and heparin-binding domain is apart from the flexible N-terminal. FGF7 itself was released by simply trypsin digestion that mimics an in vivo cleavage event (Luo et al. 1998, Lu et al. 1999, Jang et al. 1997)."}, "factor Xa [2]": {"system": "factor Xa", "assay": "Neutralization assay, anti-Factor Xa activity of heparin", "type": "biochemical", "conditions": "0.9M NaCl eluted 6000 Da heparin fractions", "description": "(§2) FIG. 4. Neutralization of anticoagulant activity of 0.9M NaCl eluted 6000 Da heparin (Sigma) fractions from GST-FGF7 column (closed squares) or Antithrombin column (closed triangles) by FGF7. a. 0.3, 1, 3, 10, 30 ug/ml FGF7 was used to neutralize anti-Factor Xa activity of 0.9M elute. b. 0.3, 1, 3, 10, 30 μg/ml FGF7 was used to neutralize anti-Factor IIa activity. The activity was expressed as percentage of Factor Xa or IIa activity in the presence of Antithrombin and FGF7, but absence of any heparin, subtracted by the remaining activity without FGF7 addition. […] Data represent average of at least three separate experiments.\n(§3) Neutralization assay. 10 μl 1 μg/ml 0.9 M high affinity FGF7 or Antithrombin bound 6000 Da heparin (final concentration 100 ng/ml) (Sigma, St. Louis) and 10 μl various concentration of FGF7 were incubated with 10 μl 10 μg/ml Antithrombin solution. The rest of the assay was essentially followed the anti-Factor Xa or anti-Factor IIa assay described above. The activity was expressed as percentage of Factor Xa or IIa activity in the presence of Antithrombin and FGF7, but absence of any heparin, subtracted by the remaining activity without FGF7 addition."}, "Factor IIa": {"system": "Factor IIa", "assay": "Neutralization assay, anti-Factor IIa activity of heparin", "type": "biochemical", "conditions": "0.9M NaCl eluted 6000 Da heparin fractions", "description": "as §2, §3"}, "[3]": {"conditions": "cited from earlier work"}, "factor Xa [4]": {"system": "factor Xa", "conditions": "determined against a low molecular weight heparin (Toida et al. 1996); cited from earlier work"}, "FGF7": {"biological_target": "T2, FGF7 (Rattus norvegicus, UniProt Q02195)", "T2 construct": "GST (N, cleaved yes); made in house; host or cells: bacteria (E. coli)", "T2 sequence (Q02195 55-194)": "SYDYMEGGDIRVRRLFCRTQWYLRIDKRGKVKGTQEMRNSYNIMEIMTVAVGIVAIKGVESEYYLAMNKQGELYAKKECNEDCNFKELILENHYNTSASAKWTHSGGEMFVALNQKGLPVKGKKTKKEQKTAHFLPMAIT", "assay": "Protease (pronase) protection assay with 125I-FGF7", "type": "biochemical", "conditions": "150 ng pronase, overnight 37° C., SDS-PAGE/autoradiography", "description": "Interaction of Heparin and Oligosaccharides with FGF. The antithrombin-binding decasaccharide (10-mer) was prepared, purified to homogeneity (28) and has the structure ΔUAp2S(1→4)-α-D-GlcNpS6S(1→4)-α-L-IdoAp(1→4)-α-D-GlcNpAc6S(1→4)-β-D-GlcAp(1→4)-α-D-GlcNpS3S6S(1→4)-α-L-IdoAp2S(1→4)-α-D-GlcNpS6S(1→4)-α-L-IdoAp2S(1→4)-α-D-GlcNpS6S. The tetradecasaccharide (14-mer) was prepared in >90% purity and characterized by multidimensional NMR spectroscopy (Toida et al. 1996). While the saccharide composition and the presence of an antithrombin-binding site pentasaccharide sequence could be confirmed, the precise placement of this sequence within the tetradecasaccharide could not be elucidated. The sequence was ΔUAp2S(1→4)-α-D-GlcNpS6S (1→4)-α-L-IdoAp2S(1→]n4)-α-D-GlcNpS6S(1→4)-α-LIdoAp(1→4)-α-D-GlcNpAc6S(1→4)-β-D-GlcAp(1→4)-α-D-GlcNpS3S6S(1→4)-α-L-IdoAp2S(1→[4)-α-D-GlcNpS6S(1→4)-α-L-IdoAp2S(1 43 ]m4)-α-D-GlcNS6S where n+m=3. The anti-factor Xa amydolytic activity of the hexasaccharide (6-mer), decasaccharide (10-mer) and tetradecasaccharide (14-mer) were 0, 3200 and 5800 units/mg, respectively, as determined against a low molecular weight heparin (Toida et al. 1996). Heparin was fractionated by antithrombin affinity chromatography (Kan et al. 1999). […] After incubation overnight at 37° C., SDS-PAGE and autoradiography were employed to quantify the remaining FGF. […]"}},
  "note": "Entries after “also recorded” stand apart in the source; their conditions may differ.",
  "data": [
    {"substance": "GST-FGF1: human FGF1 fused to Glutathione-S-Transferase (GST)", "values": [
      {"measurement": "mitogenic activity", "setting": "mouse keratinocytes (MK)", "result": "Neither GST-FGF1 nor GST-FGF7 bind and activate the FGFR kinase complex and exhibit mitogenic activity"},
      {"measurement": "binding to / activation of the FGFR complex", "setting": "FGFR2111b", "result": "Neither GST-FGF1 nor GST-FGF7 bind and activate the FGFR kinase complex"},
      {"measurement": "heparin binding", "setting": "[1]", "result": "retain affinity for heparin similar to the unfused products"}
    ]},
    {"substance": "GST-FGF7: fusion protein Glutathione-S-Transferase-Fibroblast Growth Factor 7, SEQ ID NO.4", "values": [
      {"measurement": "mitogenic activity", "setting": "mouse keratinocytes (MK)", "result": "Neither GST-FGF1 nor GST-FGF7 bind and activate the FGFR kinase complex and exhibit mitogenic activity; also recorded: inactive"},
      {"measurement": "neutralization of anti-Factor Xa activity compared with FGF7", "setting": "factor Xa [2]", "result": "same neutralization effects as FGF7"},
      {"measurement": "neutralization of anti-Factor IIa activity compared with FGF7", "setting": "Factor IIa", "result": "same neutralization effects as FGF7"},
      {"measurement": "binding to / activation of the FGFR complex", "setting": "FGFR2111b", "result": "Neither GST-FGF1 nor GST-FGF7 bind and activate the FGFR kinase complex; also recorded: inactive"},
      {"measurement": "heparin binding", "setting": "[1]", "result": "retain affinity for heparin similar to the unfused products; also recorded: fully active"},
      {"measurement": "sodium chloride concentration of elution from heparin affinity column", "setting": "[1]; heparin affinity chromatography, FPLC (FIG. 1)", "result": "about 0.9 M"}
    ]},
    {"substance": "PF4: Heparin-binding platelet factor 4, proposed scavenger for neutralizing the anticoagulant effect", "values": [
      {"measurement": "adverse effect of administration to patients", "setting": "[3]; humans (U.S. Pat. No. 5,801,063)", "result": "serious granulocytopenia"}
    ]},
    {"substance": "heparin", "values": [
      {"measurement": "patients developing clinically significant osteoporosis", "setting": "[3]; human, in vivo", "result": "half"},
      {"measurement": "patients with thrombocytopenia persisting for the duration of therapy", "setting": "[3]; human, in vivo", "result": "approximately 5%"}
    ]},
    {"substance": "protamine", "values": [
      {"measurement": "incidence of mild reactions", "setting": "[3]; use of protamine in patients", "result": "≤ 16", "unit": "%"}
    ]},
    {"substance": "ΔUAp2S(1→4)-α-D-GlcNpS6S (1→4)-α-L-IdoAp2S(1→]n4)-α-D-GlcNpS6S(1→4)-α-LIdoAp(1→4)-α-D-GlcNpAc6S(1→4)-β-D-GlcAp(1→4)-α-D-GlcNpS3S6S(1→4)-α-L-IdoAp2S(1→[4)-α-D-GlcNpS6S(1→4)-α-L-IdoAp2S(1 43 ]m4)-α-D-GlcNS6S where n+m=3 [tetradecasaccharide (14-mer)]", "values": [
      {"measurement": "anti-factor Xa amydolytic activity", "setting": "factor Xa [4]", "result": 5800, "unit": "units/mg"},
      {"measurement": "protection of FGF7 against protease", "setting": "FGF7", "result": "able to protect"}
    ]},
    {"substance": "ΔUAp2S(1→4)-α-D-GlcNpS6S(1→4)-α-L-IdoAp(1→4)-α-D-GlcNpAc6S(1→4)-β-D-GlcAp(1→4)-α-D-GlcNpS3S6S(1→4)-α-L-IdoAp2S(1→4)-α-D-GlcNpS6S(1→4)-α-L-IdoAp2S(1→4)-α-D-GlcNpS6S [decasaccharide (10-mer)]", "values": [
      {"measurement": "anti-factor Xa amydolytic activity", "setting": "factor Xa [4]", "result": 3200, "unit": "units/mg"},
      {"measurement": "protection of FGF7 against protease", "setting": "FGF7", "result": "able to protect"}
    ]}
  ]
}
